Assay results as given in patent US20260035340A1, “INHIBITORS OF AKR1C3 AND METHODS OF USE” (BOARD OF REGENTS OF THE UNIVERSITY OF NEBRASKA, priority 2022, published 2026).

Columns and labels:
[1] = In vitro stability in simulated gastric fluid (SGF); format: in vitro ADME; settings: SGF for 1 h
Experimental: (§1) In vitro stability studies: Gastrointestinal (GI) fluid stability studies were performed in simulated gastric fluid (SGF) and simulated intestinal fluid (SIF). All the required media were prepared according to the USP guidelines. Mouse plasma stability were performed for neat-spiked and plasma spiked samples (pre-extraction) at 37° C. for 4 h. In addition to the analyte stability in matrix, at 48 h stability of the extracted samples was performed at 4° C. in the autosampler.

[2] = In vitro metabolic stability in human liver microsomes; format: in vitro ADME; settings: 1 μg/mL
Experimental: (§2) In vitro metabolic stability in liver microsomes: Metabolic stability was assessed using mouse and human liver microsomes, (XenoTech, LLC, Lenexa, KS). Incubation of A1-r and 4r with the microsome fractions was performed in triplicate utilizing a concentration of 1 μg/mL as previously described. Serial samples (40 μL) were collected at selected time intervals and quenched with 300 μL of acetonitrile and then spiked with 10 μL of IS (0.5 μg/mL). All the samples were vortexed and centrifuged at 13,000×g for 15 min, and the supernatant was collected and transferred to an autosampler vial and injected (2 μL) onto the LC-MS/MS system. Testosterone, 7-HC and diclofenac were used as positive controls to ensure that the microsomes and incubation conditions were appropriate to conduct metabolism studies.

[3] = system: 22Rv1 tumor xenograft model of prostate cancer; assay: 22Rv1 tumor xenograft study; format: in vivo, NSG mice
Experimental: Tumor xenograft study: All animal experiments were carried out according to approved Institutional Animal Care and Use Committee protocols at the University of Texas Southwestern Medical Center (Dallas, TX). Five-week-old female NSG mice (low circulating testosterone) were implanted with 3×10^6 22 Rv1 cells (ATCC, mycoplasma negative) in matrigel. When tumor volume reached approximately 125 mm^3 (day 11), mice were randomly divided into three groups of six mice. One group was treated with vehicle control PO (0.5% Methocel A4M+0.1% Tween 80)+vehicle IP (10% DMSO/10% cremophor EL/80% D5W). One group was treated with vehicle PO+IP 25 mg/kg A1-r in 10% DMSO/10% cremophor EL/80% D5W. One group was treated with vehicle PO+IP 50 mg/kg 4r in 10% DMSO/10% cremophor EL/80% D5W. Dosing was continued for a total of 26 days. Tumor volumes were measured twice a week with Vernier calipers, and tumor volume was calculated as (L×W^2)×3.14)/6 as previously reported. 2-3 hours after a final IP dose, animals were humanely euthanized, and tumors were collected, weighed, and frozen in liquid nitrogen after taking pictures.

[4] = In vivo pharmacokinetic study, oral gavage; set-up: species or system BALB/c mice
Description: (§3) Liquid chromatography and mass spectrometry (LCMS/MS): The ultra-performance liquid chromatography mass spectrometry system (UPLC-MS/MS) consisted of a Shimadzu 8060NX mass spectrometer and Nexera Series UPLC (Shimadzu Scientific Instruments, Columbia, MD). Analyte separation was achieved utilizing an Acquity UPLC® BEH column (C18, 2.1×100 mm, 1.7 μm) equipped with an Acquity UPLC C18 guard column (Waters, Inc. Milford MA). The mobile phase consisted of water containing 0.1% formic acid (mobile phase A) and methanol (mobile phase B) at a flow rate of 0.25 mL/min operated at room temperature. The total run time was set to last 7.5 min with a gradient elution as follows: 35% B, increasing to 95% B over 3.5 minutes, then held constant for 3.0 minutes, and finally brought back to the initial condition of 35% B in 0.20 minutes followed by 1-minute re-equilibration. The injection volume (2 μL) was consistent for all samples. The auto-sampler chamber was maintained at 4° C. throughout the analysis.
The MS/MS system was operated at unit resolution in the multiple reaction monitoring (MRM) in positive ESI mode, using precursor ion>product ion combinations of 427.20>105.10 for A1-r and 413.15>265.10 m/z for 4r. The mass spectrometer source settings were optimized to the following: nebulizer gas: 2.0 L/min; heating gas: 10 L/min; drying gas: 10 L/min; interface temperature: 300° C.; desolvation line temperature: 250° C.; heat block temperature: 400° C. Data acquisition and quantitation were performed using LabSolutions software Ver.5.99 (Shimadzu Scientific Inc, Columbia, MD).
(§4) Plasma sample preparation: Plasma samples were prepared by spiking 5 μL of the appropriate calibration (CC) and quality (QCs) control working stock into a 45 μL blank mouse plasma. The concentration of the CC ranged from 0.2-1000 ng/mL with the final concentrations of 0.2, 0.5, 1, 5, 10, 50, 100, 500, and 1000 ng/mL. A simple protein precipitation technique using Phree 96 well phospholipid elimination plate (Phenomenex Inc, Torrance CA.) was utilized to isolate analyte from the plasma matrix. The CC, QCs and study plasma samples were added to Phree 96 well plate and spiked with 10 μL of IS a working solution. The precipitation of the matrix proteins was carried out using 300 μL of ice-cold acetonitrile. The plate was again vortexed on mixmate at 950 rpm for 2 min followed by applied 5 psi positive pressure for 10 min (Resprep VM-96 Vacuum Manifold for 96-Well Plates, Catalog #25858) (Restek; Bellefonte, PA) to collect the supernatant. Two microliters of the reconstituted sample was injected into LC-MS/MS for analysis.
In vivo pharmacokinetic studies: Animal studies were approved by the University of Nebraska Medical Center (UNMC) Institutional Animal Care and Use Committee (IACUC protocol number 17-046-06-FC). BALB/c mice were purchased from Charles River Labs. Pharmacokinetic (PK) studies of A1-r and 4r were conducted in BALB/c mice. Animals were housed in the University of Nebraska Medical Center animal facility, for at least 7 days prior to the experiments, in order to acclimatize the animals to the laboratory conditions, at a temperature of 23-24° C., relative humidity of 40-70% and 12/12 h light/dark cycles with free access to food and water. The dosing solution was made of DMSO-Polyethylene glycol 400 (PEG400)-Propylene glycol (PG)-EtOH-Cremophore-PBS (2/20/10/10/5/53% v/v). Compound A1-r or 4r (10 mg/kg) was administered separately by oral gavage. After dosing, approximately 50 μL of blood was collected from the maxillary vein at 5, 15, 30 minutes and 1, 2, 7, and 24 hr (5 mice/group/per time point). A total of three blood samples were collected, with the third blood sample a terminal collection. Plasma was separated by centrifugation at 4,000×g at 4° C. for 10 minutes. The collected plasma samples were stored at −80° C. until analysis. […]

[5] = In vitro stability in simulated intestinal fluid (SIF); format: in vitro ADME; settings: SIF for 2 h
Experimental: as §1

[6] = In vitro stability in mouse plasma; format: in vitro ADME
Description: as §3
as §4, with “analysis. […]” for “analysis.”

[7] = In vitro metabolic stability in mouse liver microsomes; format: in vitro ADME; settings: 1 μg/mL
Experimental: as §2

[8] = after oral administration (10 mg/kg) of 4r, Balb/c mice, plasma, mean ± SD, n = 5

- stability in simulated gastric fluid (SGF) [1]: stable
- degraded in HLM [2]: approximately 25%
- AUC0-t [4, 8]: 36.416 ng·h/mL
- Cmax [4, 8]: 92.796 ng/mL
- Tmax [4, 8]: 19 min
- detection in systemic circulation 1 hour post administration ([4]; oral 10 mg/Kg 4r, 1 hour post administration): undetectable
- stability in simulated intestinal fluid (SIF) [5]: stable
- time until reduced to below detectable limits in mouse plasma ([6]; exposure to mouse plasma): ≤ 30 min
- stability in mouse plasma ([6]; mouse plasma, 37° C.): unstable
- degraded in MLM [7]: approximately 25%
SMILES: COC(=O)/C=C/c1cc(C(=O)NCc2ccc(C)cc2)cc(-c2ccc3ncnn3c2)c1 [Compound 4r, Methyl (E)-3-(3-([1,2,4]triazolo[1,5-a]pyridin-6-yl)-5-((4-methylbenzyl)carbamoyl)phenyl)acrylate]
- reduction of tumor volume ([3]; 25 mg/Kg IP once a day for 26 days, 22Rv1 tumors in NSG mice): approximately 30%
- reduction of tumor burden ([3]; 50 mg/Kg IP once a day for 26 days, 22Rv1 tumors in NSG mice): approximately 45%
- mouse body weight ([3]; 25 and 50 mg/Kg IP once a day for 26 days, NSG 22Rv1 tumor-bearing mice): no observed loss of mouse body weight
